Reference: the OligoGym collection
Oligonucleotides are given in HELM: sugar(base)linkage, 5' to 3'; d 2'-deoxyribose, r ribose, m 2'-O-methylribose, p phosphate. ss, as = sense and antisense strand

biological target: TMEM63B; assay: reporter assay of Huesken 2005; settings: siRNA
Further: test concentration or dose not given here.

First: RNA1{r(G)p.r(G)p.r(C)p.r(C)p.r(U)p.r(G)p.r(C)p.r(U)p.r(C)p.r(A)p.r(U)p.r(G)p.r(U)p.r(A)p.r(C)p.r(A)p.r(U)p.r(G)p.r(A)p.d(T)p.d(T)}|RNA2{r(U)p.r(C)p.r(A)p.r(U)p.r(G)p.r(U)p.r(A)p.r(C)p.r(A)p.r(U)p.r(G)p.r(A)p.r(G)p.r(C)p.r(A)p.r(G)p.r(G)p.r(C)p.r(C)p.d(T)p.d(G)}$$$RNA1{StrandType:ss}|RNA2{StrandType:as}$
Second: RNA1{r(G)p.r(G)p.r(G)p.r(A)p.r(G)p.r(A)p.r(A)p.r(C)p.r(A)p.r(G)p.r(G)p.r(A)p.r(C)p.r(A)p.r(A)p.r(C)p.r(C)p.r(A)p.r(U)p.d(T)p.d(T)}|RNA2{r(A)p.r(U)p.r(G)p.r(G)p.r(U)p.r(U)p.r(G)p.r(U)p.r(C)p.r(C)p.r(U)p.r(G)p.r(U)p.r(U)p.r(C)p.r(U)p.r(C)p.r(C)p.r(C)p.d(C)p.d(A)}$$$RNA1{StrandType:ss}|RNA2{StrandType:as}$
The normalised inhibition (eCFP-eYFP dual reporter) of the first is higher: 71.9% for the first, 65.9% for the second.

Going from “RNA1{r(G)p.r(G)p.r(G)p.r(A)p.r(U)p.r(G)p.r(G)p.r(G)p.r(G)p.r(C)p.r(U)p.r(C)p.r(C)p.r(U)p.r(G)p.r(G)p.r(G)p.r(A)p.r(G)p.d(T)p.d(T)}|RNA2{r(C)p.r(U)p.r(C)p.r(C)p.r(C)p.r(A)p.r(G)p.r(G)p.r(A)p.r(G)p.r(C)p.r(C)p.r(C)p.r(C)p.r(A)p.r(U)p.r(C)p.r(C)p.r(C)p.d(C)p.d(A)}$$$RNA1{StrandType:ss}|RNA2{StrandType:as}$” to “RNA1{r(G)p.r(G)p.r(G)p.r(C)p.r(U)p.r(C)p.r(C)p.r(U)p.r(G)p.r(G)p.r(G)p.r(A)p.r(G)p.r(C)p.r(U)p.r(C)p.r(A)p.r(G)p.r(G)p.d(T)p.d(T)}|RNA2{r(C)p.r(C)p.r(U)p.r(G)p.r(A)p.r(G)p.r(C)p.r(U)p.r(C)p.r(C)p.r(C)p.r(A)p.r(G)p.r(G)p.r(A)p.r(G)p.r(C)p.r(C)p.r(C)p.d(C)p.d(A)}$$$RNA1{StrandType:ss}|RNA2{StrandType:as}$”, the normalised inhibition (eCFP-eYFP dual reporter) falls from 43.3% to 36.3%.

Going from “RNA1{r(G)p.r(G)p.r(G)p.r(U)p.r(U)p.r(C)p.r(C)p.r(U)p.r(A)p.r(G)p.r(C)p.r(U)p.r(C)p.r(C)p.r(C)p.r(A)p.r(C)p.r(G)p.r(U)p.d(T)p.d(T)}|RNA2{r(A)p.r(C)p.r(G)p.r(U)p.r(G)p.r(G)p.r(G)p.r(A)p.r(G)p.r(C)p.r(U)p.r(A)p.r(G)p.r(G)p.r(A)p.r(A)p.r(C)p.r(C)p.r(C)p.d(C)p.d(G)}$$$RNA1{StrandType:ss}|RNA2{StrandType:as}$” to “RNA1{r(G)p.r(G)p.r(U)p.r(G)p.r(G)p.r(C)p.r(C)p.r(G)p.r(C)p.r(G)p.r(C)p.r(C)p.r(C)p.r(A)p.r(U)p.r(C)p.r(C)p.r(U)p.r(C)p.d(T)p.d(T)}|RNA2{r(G)p.r(A)p.r(G)p.r(G)p.r(A)p.r(U)p.r(G)p.r(G)p.r(G)p.r(C)p.r(G)p.r(C)p.r(G)p.r(G)p.r(C)p.r(C)p.r(A)p.r(C)p.r(C)p.d(A)p.d(C)}$$$RNA1{StrandType:ss}|RNA2{StrandType:as}$”, the normalised inhibition (eCFP-eYFP dual reporter) falls from 57.9% to 49.4%.

First: RNA1{r(G)p.r(U)p.r(A)p.r(C)p.r(A)p.r(U)p.r(G)p.r(A)p.r(U)p.r(C)p.r(C)p.r(G)p.r(G)p.r(C)p.r(U)p.r(C)p.r(U)p.r(G)p.r(C)p.d(T)p.d(T)}|RNA2{r(G)p.r(C)p.r(A)p.r(G)p.r(A)p.r(G)p.r(C)p.r(C)p.r(G)p.r(G)p.r(A)p.r(U)p.r(C)p.r(A)p.r(U)p.r(G)p.r(U)p.r(A)p.r(C)p.d(A)p.d(T)}$$$RNA1{StrandType:ss}|RNA2{StrandType:as}$
Second: RNA1{r(G)p.r(U)p.r(A)p.r(C)p.r(U)p.r(A)p.r(C)p.r(A)p.r(C)p.r(A)p.r(A)p.r(A)p.r(G)p.r(C)p.r(U)p.r(G)p.r(G)p.r(A)p.r(G)p.d(T)p.d(T)}|RNA2{r(C)p.r(U)p.r(C)p.r(C)p.r(A)p.r(G)p.r(C)p.r(U)p.r(U)p.r(U)p.r(G)p.r(U)p.r(G)p.r(U)p.r(A)p.r(G)p.r(U)p.r(A)p.r(C)p.d(T)p.d(C)}$$$RNA1{StrandType:ss}|RNA2{StrandType:as}$
The normalised inhibition (eCFP-eYFP dual reporter) of the first is lower: 46.8% for the first, 58.4% for the second.

First: RNA1{r(G)p.r(U)p.r(A)p.r(U)p.r(C)p.r(U)p.r(G)p.r(C)p.r(U)p.r(G)p.r(C)p.r(U)p.r(C)p.r(A)p.r(C)p.r(C)p.r(G)p.r(U)p.r(C)p.d(T)p.d(T)}|RNA2{r(G)p.r(A)p.r(C)p.r(G)p.r(G)p.r(U)p.r(G)p.r(A)p.r(G)p.r(C)p.r(A)p.r(G)p.r(C)p.r(A)p.r(G)p.r(A)p.r(U)p.r(A)p.r(C)p.d(A)p.d(G)}$$$RNA1{StrandType:ss}|RNA2{StrandType:as}$
Second: RNA1{r(G)p.r(U)p.r(C)p.r(C)p.r(C)p.r(C)p.r(A)p.r(A)p.r(A)p.r(U)p.r(C)p.r(U)p.r(G)p.r(C)p.r(G)p.r(A)p.r(A)p.r(A)p.r(U)p.d(T)p.d(T)}|RNA2{r(A)p.r(U)p.r(U)p.r(U)p.r(C)p.r(G)p.r(C)p.r(A)p.r(G)p.r(A)p.r(U)p.r(U)p.r(U)p.r(G)p.r(G)p.r(G)p.r(G)p.r(A)p.r(C)p.d(A)p.d(G)}$$$RNA1{StrandType:ss}|RNA2{StrandType:as}$
The normalised inhibition (eCFP-eYFP dual reporter) of the first is lower: 65.4% for the first, 82% for the second.

Going from “RNA1{r(G)p.r(U)p.r(C)p.r(C)p.r(U)p.r(U)p.r(U)p.r(C)p.r(A)p.r(G)p.r(C)p.r(G)p.r(G)p.r(C)p.r(A)p.r(C)p.r(A)p.r(U)p.r(C)p.d(T)p.d(T)}|RNA2{r(G)p.r(A)p.r(U)p.r(G)p.r(U)p.r(G)p.r(C)p.r(C)p.r(G)p.r(C)p.r(U)p.r(G)p.r(A)p.r(A)p.r(A)p.r(G)p.r(G)p.r(A)p.r(C)p.d(A)p.d(G)}$$$RNA1{StrandType:ss}|RNA2{StrandType:as}$” to “RNA1{r(G)p.r(U)p.r(C)p.r(U)p.r(C)p.r(A)p.r(C)p.r(C)p.r(U)p.r(C)p.r(U)p.r(G)p.r(U)p.r(C)p.r(U)p.r(C)p.r(C)p.r(A)p.r(G)p.d(T)p.d(T)}|RNA2{r(C)p.r(U)p.r(G)p.r(G)p.r(A)p.r(G)p.r(A)p.r(C)p.r(A)p.r(G)p.r(A)p.r(G)p.r(G)p.r(U)p.r(G)p.r(A)p.r(G)p.r(A)p.r(C)p.d(G)p.d(C)}$$$RNA1{StrandType:ss}|RNA2{StrandType:as}$”, the normalised inhibition (eCFP-eYFP dual reporter) rises from 65.1% to 88.6%.

Going from “RNA1{r(G)p.r(U)p.r(C)p.r(U)p.r(C)p.r(C)p.r(A)p.r(G)p.r(C)p.r(U)p.r(C)p.r(C)p.r(G)p.r(U)p.r(U)p.r(G)p.r(A)p.r(C)p.r(U)p.d(T)p.d(T)}|RNA2{r(A)p.r(G)p.r(U)p.r(C)p.r(A)p.r(A)p.r(C)p.r(G)p.r(G)p.r(A)p.r(G)p.r(C)p.r(U)p.r(G)p.r(G)p.r(A)p.r(G)p.r(A)p.r(C)p.d(A)p.d(G)}$$$RNA1{StrandType:ss}|RNA2{StrandType:as}$” to “RNA1{r(G)p.r(U)p.r(G)p.r(A)p.r(A)p.r(U)p.r(G)p.r(A)p.r(G)p.r(A)p.r(A)p.r(G)p.r(C)p.r(C)p.r(U)p.r(C)p.r(U)p.r(U)p.r(G)p.d(T)p.d(T)}|RNA2{r(C)p.r(A)p.r(A)p.r(G)p.r(A)p.r(G)p.r(G)p.r(C)p.r(U)p.r(U)p.r(C)p.r(U)p.r(C)p.r(A)p.r(U)p.r(U)p.r(C)p.r(A)p.r(C)p.d(C)p.d(T)}$$$RNA1{StrandType:ss}|RNA2{StrandType:as}$”, the normalised inhibition (eCFP-eYFP dual reporter) falls from 69.5% to 69.3%.

Compared with “RNA1{r(G)p.r(U)p.r(G)p.r(G)p.r(U)p.r(G)p.r(G)p.r(C)p.r(C)p.r(G)p.r(C)p.r(G)p.r(C)p.r(C)p.r(C)p.r(A)p.r(U)p.r(C)p.r(C)p.d(T)p.d(T)}|RNA2{r(G)p.r(G)p.r(A)p.r(U)p.r(G)p.r(G)p.r(G)p.r(C)p.r(G)p.r(C)p.r(G)p.r(G)p.r(C)p.r(C)p.r(A)p.r(C)p.r(C)p.r(A)p.r(C)p.d(C)p.d(T)}$$$RNA1{StrandType:ss}|RNA2{StrandType:as}$”, “RNA1{r(G)p.r(U)p.r(G)p.r(G)p.r(U)p.r(U)p.r(G)p.r(U)p.r(G)p.r(G)p.r(G)p.r(C)p.r(G)p.r(U)p.r(C)p.r(C)p.r(U)p.r(C)p.r(U)p.d(T)p.d(T)}|RNA2{r(A)p.r(G)p.r(A)p.r(G)p.r(G)p.r(A)p.r(C)p.r(G)p.r(C)p.r(C)p.r(C)p.r(A)p.r(C)p.r(A)p.r(A)p.r(C)p.r(C)p.r(A)p.r(C)p.d(C)p.d(A)}$$$RNA1{StrandType:ss}|RNA2{StrandType:as}$” is higher in normalised inhibition (eCFP-eYFP dual reporter): 46.3% for the first, 53.5% for the second.

First: RNA1{r(U)p.r(A)p.r(A)p.r(A)p.r(G)p.r(G)p.r(A)p.r(U)p.r(G)p.r(A)p.r(U)p.r(G)p.r(A)p.r(G)p.r(A)p.r(U)p.r(C)p.r(C)p.r(G)p.d(T)p.d(T)}|RNA2{r(C)p.r(G)p.r(G)p.r(A)p.r(U)p.r(C)p.r(U)p.r(C)p.r(A)p.r(U)p.r(C)p.r(A)p.r(U)p.r(C)p.r(C)p.r(U)p.r(U)p.r(U)p.r(A)p.d(T)p.d(C)}$$$RNA1{StrandType:ss}|RNA2{StrandType:as}$
Second: RNA1{r(U)p.r(A)p.r(C)p.r(C)p.r(U)p.r(C)p.r(A)p.r(G)p.r(U)p.r(G)p.r(C)p.r(C)p.r(C)p.r(A)p.r(C)p.r(A)p.r(A)p.r(C)p.r(U)p.d(T)p.d(T)}|RNA2{r(A)p.r(G)p.r(U)p.r(U)p.r(G)p.r(U)p.r(G)p.r(G)p.r(G)p.r(C)p.r(A)p.r(C)p.r(U)p.r(G)p.r(A)p.r(G)p.r(G)p.r(U)p.r(A)p.d(T)p.d(T)}$$$RNA1{StrandType:ss}|RNA2{StrandType:as}$
The normalised inhibition (eCFP-eYFP dual reporter) of the first is lower: 24.7% for the first, 51.3% for the second.

Compared with “RNA1{r(U)p.r(C)p.r(A)p.r(C)p.r(C)p.r(A)p.r(C)p.r(C)p.r(A)p.r(U)p.r(G)p.r(G)p.r(A)p.r(C)p.r(A)p.r(A)p.r(G)p.r(U)p.r(U)p.d(T)p.d(T)}|RNA2{r(A)p.r(A)p.r(C)p.r(U)p.r(U)p.r(G)p.r(U)p.r(C)p.r(C)p.r(A)p.r(U)p.r(G)p.r(G)p.r(U)p.r(G)p.r(G)p.r(U)p.r(G)p.r(A)p.d(T)p.d(G)}$$$RNA1{StrandType:ss}|RNA2{StrandType:as}$”, “RNA1{r(U)p.r(C)p.r(A)p.r(C)p.r(C)p.r(U)p.r(G)p.r(C)p.r(C)p.r(C)p.r(C)p.r(A)p.r(U)p.r(C)p.r(A)p.r(U)p.r(C)p.r(G)p.r(U)p.d(T)p.d(T)}|RNA2{r(A)p.r(C)p.r(G)p.r(A)p.r(U)p.r(G)p.r(A)p.r(U)p.r(G)p.r(G)p.r(G)p.r(G)p.r(C)p.r(A)p.r(G)p.r(G)p.r(U)p.r(G)p.r(A)p.d(T)p.d(A)}$$$RNA1{StrandType:ss}|RNA2{StrandType:as}$” is higher in normalised inhibition (eCFP-eYFP dual reporter): 67.7% for the first, 73% for the second.
